Converted amounts (≈) assume the structure as drawn. Where two headings read alike, the source gives them in different places.
Legend:
mice = system: mice; parameters: method as in Macko et al, 15; conditions: mitragynine salt solution, ref Macko et al, 15; cited from earlier work
[1] = Equilibrium solubility in water and buffers (HPLC-UV); assay type: physicochemical
Method: (§1) The HPLC system consisted of a Jasco delivery pump (Tokyo, Japan) equipped with autosampler connected to a Waters 2487 detector (Milford, MA, USA) coupled to Jasco Chromnav software (Version 2.0, Tokyo, Japan). Chromatographic separation was performed on a C8 Agilent Eclipse plus (4.6 mm i.d. × 250 mm, 5-μm particle size; Apple Valley, MN, USA). The HPLC-UV method was adapted from our previous study and revalidated for the present HPLC system. The method was employed to quantify mitragynine in partition coefficient, stability, dissolution and solubility studies.
(§2) For solubility studies, an excess of mitragynine was added to 1.0 mL each of distilled water or buffers at pH 4, 7 and 9. The test tubes were placed in a water bath shaker at 37 degrees Celsius at 100 cycles/min for 48 h until equilibrium. The samples were centrifuged at 3000 rpm for 5 min and supernatant was taken for quantification of mitragynine by HPLC-UV. For stability studies, analogous buffers were used, but they were spiked with mitragynine in acetonitrile to give a concentration of 20 µg/mL (organic content was kept below 1%). A 0.1 mL aliquot was collected from each buffer system at intervals of 0, 0.5, 6.0 and 24.0 h for determination of mitragynine. Mitragynine concentrations were expressed as percentage recovered. All experiments were performed in triplicates.

[2] = pKa determination, microplate spectrophotometer method; assay type: physicochemical; conditions: aqueous buffer
From the text: The instruments employed were UV spectrophotometer 8453 UV-Vis Diode Array (Agilent, Santa Clara, CA, USA), and Multiskan* GO Microplate Spectrophotometer (Thermo Scientific, Waltham, MA, USA). Data were captured using the Thermo Scientific SkanIt Software (Thermo Scientific, Version 3.2). Buffer Maker Software (version 1.0.1.55, BPP Marcin Borkowski, Marki, Poland,) was used for preparation of buffers with constant ionic strength for pKa determination. The pH-meter employed throughout the study was a PH 211 Hanna (Padova, Italy) equipped with a combined glass electrode.
pKa determination was carried out using conventional UV and microplate spectrophotometer methods. Acetic acid, tris base and sodium carbonate were used to prepare stable buffers in the pH range of 3 to 12. The buffers were prepared to give a final buffer molarity of 0.01 M. Either NaOH or HCl were used for pH adjustment of the various buffers, whose ionic strength was kept constant at 0.02 by addition of NaCl.
Stock solution of mitragynine at 0.5 mg/mL was prepared in acetonitrile. Ten microliters of the stock solution was transferred into individual test tubes and diluted with 1.0 mL buffer of various pH to give a final concentration of 5 μg/mL. For absorbance spectrum analysis, 250 μL of the various pH buffer solutions spiked with drug were placed in a 96-well quartz UV-transparent microplate and immediately scanned in the range of 200–400 nm at a scanning rate of 200 nm/s in triplicates. The pKa was calculated with equation pKa = pH + log (d − dm/di − d), for basic compound, where di is the absorbance of the ionised species, d is the absorbance of the solution tested and dm is the absorbance of the neutral species.

rats = system: rats; parameters: method as in Macko et al, 15; conditions: mitragynine salt solution, ref Macko et al, 15; cited from earlier work
[3] = Stability in simulated gastric fluid (SGF, with enzymes); conditions: for Concentration Found in SGF: SGF pH ~1.2 with pepsin, 37 °C
[4] = rats, cited from earlier work
[5] = Stability in buffers pH 4, 7, 9 (percentage recovered); assay type: physicochemical; conditions: for percentage recovered: 20 µg/mL
Method: as §1
as §2, with “For stability studies, analogous buffers were used, but they were spiked with mitragynine in acetonitrile to give a concentration of 20 µg/mL (organic content was kept below 1%).” left out

## CC[C@@H]1CN2CCc3c([nH]c4cccc(OC)c34)[C@@H]2C[C@@H]1/C(=C\OC)C(=O)OC [mitragynine]
mice
  dose up to which no adverse reactions were reported: 920 mg/kg
[1]; aqueous buffer, thermodynamic from solid, buffer pH 4, 37 °C
  solubility at 48 h: 3500 ± 10 µg/mL (≈ 8780 µM)
[1]; aqueous buffer, thermodynamic from solid, buffer pH 7, 37 °C
  solubility at 48 h: 88.9 ± 1.6 µg/mL (≈ 223 µM)
[1]; aqueous buffer, thermodynamic from solid, buffer pH 9, 37 °C
  solubility at 48 h: 18.7 ± 0.4 µg/mL (≈ 46.9 µM)
[1]; distilled water, thermodynamic from solid, water, 37 °C
  solubility at 48 h: 64.6 ± 1.2 µg/mL (≈ 162 µM)
[1]; distilled water, water, 37 °C
  solubility at 48 h: < 100 µg/mL
[2]; Microplate Spectrophotometer, Day 1, read-out: pKa, interday repeatability
  pKa: 8.18
[2]; Microplate Spectrophotometer, Day 2, read-out: pKa, interday repeatability
  pKa: 8.1
[2]; Microplate Spectrophotometer, Day 3, read-out: pKa, interday repeatability
  pKa: 8.12
[2]; pH 7.55, target pH 7.6, actual pH 7.55, 5 µg/mL, 248 nm, read-out: pKa
  pKa: 8.09
[2]; pH 7.6, microplate method, mean over pH 7.6-9.0, read-out: pKa (Mean ± SD)
  pKa: 8.08 ± 0.04
[2]; pH 7.76, target pH 7.8, actual pH 7.76, 5 µg/mL, 248 nm, read-out: pKa
  pKa: 8.11
[2]; pH 7.94, target pH 8.0, actual pH 7.94, 5 µg/mL, 248 nm, read-out: pKa
  pKa: 8.03
[2]; pH 8.15, target pH 8.2, actual pH 8.15, 5 µg/mL, 248 nm, read-out: pKa
  pKa: 8.09
[2]; pH 8.32, target pH 8.4, actual pH 8.32, 5 µg/mL, 248 nm, read-out: pKa
  pKa: 8.1
[2]; pH 8.5, target pH 8.6, actual pH 8.50, 5 µg/mL, 248 nm, read-out: pKa
  pKa: 8.03
[2]; pH 8.66, target pH 8.8, actual pH 8.66, 5 µg/mL, 248 nm, read-out: pKa
  pKa: 8.15
[2]; pH 8.8, target pH 9.0, actual pH 8.80, 5 µg/mL, 248 nm, read-out: pKa
  pKa: 8.06
rats
  dose up to which no adverse reactions were reported: 806 mg/kg
[3]; 0 min
  Concentration Found in SGF: 18.72 ± 0.05 µg/mL
[3]; 10 min
  RD (relative difference vs time 0) in SGF: −0.21%
  Concentration Found in SGF: 18.68 ± 0.23 µg/mL
[3]; 20 min
  RD (relative difference vs time 0) in SGF: −20.00%
  Concentration Found in SGF: 14.98 ± 0.88 µg/mL
[3]; 30 min
  RD (relative difference vs time 0) in SGF: −22.5%
  Concentration Found in SGF: 14.54 ± 0.58 µg/mL
[3]; 40 min
  Concentration Found in SGF: 14.19 ± 0.37 µg/mL
[3]; 50 min
  RD (relative difference vs time 0) in SGF: −24.19%
  Concentration Found in SGF: 14.11 ± 0.22 µg/mL
[3]; 60 min
  RD (relative difference vs time 0) in SGF: −25.53%
  Concentration Found in SGF: 13.94 ± 0.20 µg/mL
[3]; SGF pH ≈ 1.2, 37 °C
  stability in SGF (in words): not stable
[3]; from the 20 min time point onwards
  relative deviation / drug loss in SGF: greater than 20%
[4]; oral dose 20–50 mg/kg
  Cmax: 0.4 to 2.3 µg/mL
  half-life: 3.8 to 9.4 h
[4]
  absolute oral bioavailability: ≈ 3%
[5]; pH 4
  stability in buffer (in words): appears to degrade over time
[5]; pH 4 buffer, 0.5 h
  percentage recovered: 100.6 ± 0.3%
[5]; pH 4 buffer, 6 h
  percentage recovered: 91.8 ± 1.0%
[5]; pH 4 buffer, 24 h
  percentage recovered: 88.8 ± 1.4%
[5]; pH 7 and 9, 24 h
  stability in buffer (in words): stable
[5]; pH 7 buffer, 0.5 h
  percentage recovered: 99.2 ± 0.4%
[5]; pH 7 buffer, 6 h
  percentage recovered: 96.1 ± 1.9%
[5]; pH 7 buffer, 24 h
  percentage recovered: 101.9 ± 0.9%
[5]; pH 9 buffer, 0.5 h
  percentage recovered: 101.3 ± 2.6%
[5]; pH 9 buffer, 6 h
  percentage recovered: 97.8 ± 0.3%
[5]; pH 9 buffer, 24 h
  percentage recovered: 95.5 ± 2.5%

— PMC6272646, “Understanding the Physicochemical Properties of Mitragynine, a Principal Alkaloid of Mitragyna speciosa, for Preclinical Evaluation” (Molecules, 2015)
